Here are results for 2 molecules from US20260373165A1, “PHARMACEUTICAL COMBINATIONS AND COMPOSITIONS, AND METHODS OF USE THEREOF” (SHENZHEN HIGHTIDE BIOPHARMACEUTICAL LTD., priority 2022, published 2026).

This assay can be described thus: Example 1: liver, abdominal and subcutaneous fat weight after 28 days. The conditions noted are these: mean, HTD1801 200 mpk, empagliflozin 10 mpk in last 2 weeks (300/15 mpk before). It counts as in vivo, mouse (C57BL/6J male, 60% HFD DIO). From the text: After 5-week-old C57BL/6J male mice were acclimatized for 1 week, the weight of each mouse was weighed, and the mice were randomly divided into a control group and a model group by taking the weight as a main index, where 12 mice in the control group were fed with common feed (CD), and the mice in the remaining model group were fed with 60% high-fat feed (60% HFD) for 10-12 weeks to construct a DIO obesity model, with the average body weight being not less than 40 g. The mice fed with 60% HFD were grabbed and acclimatized with a solvent for 3 days, where the acclimatization with a solvent was performed by oral gavage of 0.5% CMC-Na, twice daily.
The food intake, the body weight, the body fat ratio, and the insulin level of the mice were respectively measured, followed by fasting blood glucose level, and the mice were randomly grouped according to Table 3 by taking the body weight as an index, and the remaining ungrouped mice were euthanized. After grouping, each group of mice was administered according to Table 3, the day of administration was defined as DO, and the administration volume of each drug was determined based on the results obtained by the calculation of 5 μL/g× mouse body weight (g).
For the combined administration group, the total administration volume was the sum of the administration volumes of two single drugs, and the administration sequence and the administration time were kept consistent at each administration. The mice were continuously fed with high-fat feed during the administration period until the administration was finished. During administration, 2 food intakes were measured per week (difference in feed weights at an interval of 24 h was measured); each group of mice was weighed once daily; postprandial blood glucose levels were measured weekly; blood was collected from the tail tip on day 6 and day 20, respectively, so as to measure fasting blood glucose levels once (blood was collected after fasting from 8:00 am to […]); on day 25 of administration, the body fat ratio and the lean mass of each group of mice were measured by MRI (the measurement period was kept consistent with that before grouping); after 4 weeks of administration intervention (day 28), each group of mice was fasted for 6 h and subjected to OGTT (0 min, 15 min, 30 min, 60 min, 90 min, 120 min) to detect their blood glucose levels, and meanwhile subjected to blood sampling via submaxillary vein (0 min, 15 min, 30 min, about 30 μL of blood sampled each time), and then the blood plasma was separated for detecting the insulin level by ELISA, where the separated blood plasma was more than 10 μL; the next day (D29) at the end of administration was set as the test endpoint, and the mice were fasted for 6 h in the morning and subjected to fasting blood glucose level measurement; subsequently, the mice were euthanized with CO2, blood was collected from the heart of each mouse for analysis, and each group of mice was dissected; the liver and subcutaneous, epididymal and mesenteric fat was collected, photographed and weighed, respectively.
After 28 days of administration, the mice were euthanized with CO2 the next day, and the mice of groups G1 to G5 were dissected, and liver and abdominal fat (including epididymis and mesentery), and subcutaneous fat were collected, photographed and weighed, respectively, and the results are shown in Table 6 below, FIG. 6, FIG. 7, and FIG. 8.

In the case of `COc1ccc2cc3[n+](cc2c1OC)CCc1cc2c(cc1-3)OCO2.C[C@H](CCC(=O)[O-])[C@H]1CC[C@H]2[C@@H]3[C@@H](O)C[C@@H]4C[C@H](O)CC[C@]4(C)[C@H]3CC[C@]12C` [HTD1801, berberine ursodeoxycholate], the Epididymal fat weight worked out at 2.31 g, the Liver weight worked out at 0.98 g, the Mesenteric fat weight was 0.78 g and the Subcutaneous fat weight was 2.32 g.

The molecule `OC[C@H]1O[C@@H](c2ccc(Cl)c(Cc3ccc(O[C@H]4CCOC4)cc3)c2)[C@H](O)[C@@H](O)[C@@H]1O` [Empagliflozin, empagliflozin] registered an Epididymal fat weight of 2.82 g, a Liver weight of 1.34 g, a Mesenteric fat weight of 1.20 g and a Subcutaneous fat weight of 3.02 g.
